{"source": "PubChem BioAssay AID256", "about": "(DTP/NCI, 2004)", "test_system": "CD2F1 mice, L1210 leukemia ip, survival T/C", "assay": "NCI In Vivo Anticancer Drug Screen. Data for tumor model L1210 Leukemia (intraperitoneal) in CD2F1 (CDF1) mice", "settings": "higher = longer survival", "summary_of_the_method": "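Vehicle-treated tumor-bearing mice served as controls (C) for compound-treated mice (T). Reported figure is T divided by C.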", "key": {"[1]": {"settings": "endpoint: mean survival time, dose: 25.0 mg/kg/injection, schedule: Q04DX003 (ip), vehicle: saline with Tween-80"}, "[2]": {"settings": "endpoint: mean survival time, dose: 50.0 mg/kg/injection, schedule: Q04DX003 (ip), vehicle: saline with Tween-80"}, "[3]": {"settings": "endpoint: mean survival time, dose: 100.0 mg/kg/injection, schedule: Q01DX009 (ip), vehicle: saline with Tween-80"}, "[4]": {"settings": "endpoint: mean survival time, dose: 200.0 mg/kg/injection, schedule: Q01DX009 (ip), vehicle: saline with Tween-80"}, "[5]": {"settings": "endpoint: mean survival time, dose: 400.0 mg/kg/injection, schedule: Q01DX009 (ip), vehicle: saline with Tween-80"}, "[6]": {"settings": "endpoint: mean survival time, dose: 100.0 mg/kg/injection, schedule: Q01DX001 (ip), vehicle: saline with Tween-80"}, "[7]": {"settings": "endpoint: mean survival time, dose: 200.0 mg/kg/injection, schedule: Q01DX001 (ip), vehicle: saline with Tween-80"}, "[8]": {"settings": "endpoint: mean survival time, dose: 400.0 mg/kg/injection, schedule: Q01DX001 (ip), vehicle: saline with Tween-80"}, "[9]": {"settings": "endpoint: mean survival time, dose: 100.0 mg/kg/injection, schedule: Q04DX003 (ip), vehicle: saline with Tween-80"}}, "note": "Values joined by “and” are separate entries in the source; they are usually repeats but may differ in a detail not shown here. Equal values may be shown once. Toxic doses and inconclusive results are not listed.", "data": [{"smiles": "CCC1=NNC(=O)C1(Br)Br", "values": [{"measurement": "T/C", "setting": "endpoint: mean survival time, dose: 12.5 mg/kg/injection, schedule: Q04DX003 (ip), vehicle: saline with Tween-80", "value": "100 % of control"}, {"measurement": "T/C", "setting": "[1]", "value": "102 % of control"}, {"measurement": "T/C", "setting": "[2]", "value": "105 % of control"}]}, {"smiles": "CCOC(=O)CCCc1ccccc1", "values": [{"measurement": "T/C", "setting": "[3]", "value": "93 % of control"}, {"measurement": "T/C", "setting": "[4]", "value": "95 % of control"}, {"measurement": "T/C", "setting": "[5]", "value": "102 % of control"}]}, {"smiles": "COc1ccccc1C1(O)c2ccccc2Sc2cccc(OC)c21", "note": "(stereo unspecified)", "values": [{"measurement": "T/C", "setting": "[3]", "value": "86 % of control"}, {"measurement": "T/C", "setting": "[4]", "value": "89 % of control"}, {"measurement": "T/C", "setting": "[5]", "value": "94 % of control"}]}, {"smiles": "COc1cc(C2c3cc4c(cc3C(OC3CCCCO3)C3COC(=O)C23)OCO4)cc(OC)c1OC", "note": "(stereo unspecified)", "values": [{"measurement": "T/C", "setting": "endpoint: median survival time, dose: 1.56 mg/kg/injection, schedule: Q01DX009 (ip), vehicle: Klucel (hydroxypropylcellulose) (HPC)", "value": "109 % of control"}, {"measurement": "T/C", "setting": "endpoint: median survival time, dose: 3.12 mg/kg/injection, schedule: Q01DX009 (ip), vehicle: Klucel (hydroxypropylcellulose) (HPC)", "value": "120 % of control"}, {"measurement": "T/C", "setting": "endpoint: median survival time, dose: 3.13 mg/kg/injection, schedule: Q01DX009 (ip), vehicle: Klucel (hydroxypropylcellulose) (HPC)", "value": "114 % of control"}, {"measurement": "T/C", "setting": "endpoint: median survival time, dose: 6.25 mg/kg/injection, schedule: Q01DX009 (ip), vehicle: Klucel (hydroxypropylcellulose) (HPC)", "value": "120 % of control"}, {"measurement": "T/C", "setting": "endpoint: median survival time, dose: 12.5 mg/kg/injection, schedule: Q01DX009 (ip), vehicle: Klucel (hydroxypropylcellulose) (HPC)", "value": "101 % of control"}]}, {"smiles": "COc1ccc(S(=O)(=O)N=N/C=C2\\C=CC=CN2O)cc1OC", "values": [{"measurement": "T/C", "setting": "endpoint: median survival time, dose: 3.12 mg/kg/injection, schedule: Q01DX009 (ip), vehicle: saline with Tween-80", "value": "101 % of control"}, {"measurement": "T/C", "setting": "endpoint: median survival time, dose: 6.25 mg/kg/injection, schedule: Q01DX009 (ip), vehicle: saline with Tween-80", "value": "107 % of control"}, {"measurement": "T/C", "setting": "endpoint: median survival time, dose: 12.5 mg/kg/injection, schedule: Q01DX009 (ip), vehicle: saline with Tween-80", "value": "104 % of control"}, {"measurement": "T/C", "setting": "endpoint: median survival time, dose: 18.0 mg/kg/injection, schedule: Q01DX009 (ip), vehicle: saline with Tween-80", "value": "103 % of control"}, {"measurement": "T/C", "setting": "endpoint: median survival time, dose: 37.0 mg/kg/injection, schedule: Q01DX009 (ip), vehicle: saline with Tween-80", "value": "105 % of control"}, {"measurement": "T/C", "setting": "endpoint: median survival time, dose: 100.0 mg/kg/injection, schedule: Q01DX009 (ip), vehicle: saline with Tween-80", "value": "113 % of control"}, {"measurement": "T/C", "setting": "endpoint: median survival time, dose: 150.0 mg/kg/injection, schedule: Q01DX009 (ip), vehicle: saline with Tween-80", "value": "98 % of control"}, {"measurement": "T/C", "setting": "endpoint: median survival time, dose: 200.0 mg/kg/injection, schedule: Q01DX009 (ip), vehicle: saline with Tween-80", "value": "95 % of control"}]}, {"smiles": "C/C=C/C(O)C(O)/C=C/C", "note": "(stereo unspecified)", "values": [{"measurement": "T/C", "setting": "[6]", "value": "94 % of control"}, {"measurement": "T/C", "setting": "[7]", "value": "97 % of control"}, {"measurement": "T/C", "setting": "[8]", "value": "97 % of control"}]}, {"smiles": "Cc1ccc(Cl)cc1NC(=O)c1c(Br)c(Br)c(Br)c(Br)c1C(=O)O", "values": [{"measurement": "T/C", "setting": "[6]", "value": "106 % of control"}, {"measurement": "T/C", "setting": "[7]", "value": "110 % of control"}, {"measurement": "T/C", "setting": "[8]", "value": "108 % of control"}]}, {"smiles": "c1ccc2c(c1)CCc1ccccc1N2", "values": [{"measurement": "T/C", "setting": "[6]", "value": "100 % of control"}, {"measurement": "T/C", "setting": "[7]", "value": "100 % of control"}, {"measurement": "T/C", "setting": "[8]", "value": "91 % of control"}]}, {"smiles": "CC(C)CCCCCCCCCCCCC(=O)NCC(=O)NC1C(C)OC(Nc2ncnc3nc[nH]c23)C(O)C1O", "note": "(stereo unspecified)", "values": [{"measurement": "T/C", "setting": "endpoint: mean survival time, dose: 0.25 mg/kg/injection, schedule: Q01DX009 (ip), vehicle: distilled water + Tween-80", "value": "100 % of control and 102 % of control"}, {"measurement": "T/C", "setting": "endpoint: mean survival time, dose: 0.5 mg/kg/injection, schedule: Q01DX009 (ip), vehicle: distilled water + Tween-80", "value": "96 % of control and 100 % of control"}, {"measurement": "T/C", "setting": "endpoint: mean survival time, dose: 1.0 mg/kg/injection, schedule: Q01DX009 (ip), vehicle: distilled water + Tween-80", "value": "96 % of control and 104 % of control"}, {"measurement": "T/C", "setting": "endpoint: mean survival time, dose: 2.0 mg/kg/injection, schedule: Q01DX009 (ip), vehicle: distilled water + Tween-80", "value": "98 % of control and 107 % of control"}, {"measurement": "T/C", "setting": "endpoint: mean survival time, dose: 4.0 mg/kg/injection, schedule: Q01DX009 (ip), vehicle: distilled water + Tween-80", "value": "96 % of control and 106 % of control"}, {"measurement": "T/C", "setting": "endpoint: mean survival time, dose: 8.0 mg/kg/injection, schedule: Q01DX009 (ip), vehicle: distilled water + Tween-80", "value": "94 % of control and 102 % of control"}]}, {"smiles": "c1ccc2c(c1)[nH]c1ccncc12", "values": [{"measurement": "T/C", "setting": "endpoint: mean survival time, dose: 25.0 mg/kg/injection, schedule: Q01DX009 (ip), vehicle: saline with Tween-80", "value": "98 % of control"}, {"measurement": "T/C", "setting": "endpoint: mean survival time, dose: 50.0 mg/kg/injection, schedule: Q01DX009 (ip), vehicle: saline with Tween-80", "value": "90 % of control"}, {"measurement": "T/C", "setting": "[3]", "value": "87 % of control"}]}, {"smiles": "O=C(Nc1ccccc1C(=O)O)c1ccccc1", "values": [{"measurement": "T/C", "setting": "[1]", "value": "106 % of control"}, {"measurement": "T/C", "setting": "[2]", "value": "101 % of control"}, {"measurement": "T/C", "setting": "[9]", "value": "98 % of control and 101 % of control"}]}, {"smiles": "O=C(O)CCCCCCCCC1CC(F)(F)C(F)(F)S1", "note": "(stereo unspecified)", "values": [{"measurement": "T/C", "setting": "[3]", "value": "98 % of control"}, {"measurement": "T/C", "setting": "[4]", "value": "92 % of control"}, {"measurement": "T/C", "setting": "[5]", "value": "95 % of control"}]}, {"smiles": "COc1cccc2c1C(=O)c1c(O)c3c(c(O)c1C2=O)CC(O)(C(=O)CO)CC3OC1CC(N)C(O)C(C)O1.[Cl][Pt+2][Cl].[NH2-].[NH2-]", "note": "(stereo unspecified)", "values": [{"measurement": "T/C", "setting": "endpoint: median survival time, dose: 4.0 mg/kg/injection, schedule: Q04DX003 (ip), vehicle: DMSO", "value": "152 % of control"}, {"measurement": "T/C", "setting": "endpoint: median survival time, dose: 8.0 mg/kg/injection, schedule: Q04DX003 (ip), vehicle: DMSO", "value": "153 % of control and 154 % of control"}]}, {"smiles": "O=C1OC(c2ccccc2)(c2ccccn2)c2ccccc21", "note": "(stereo unspecified)", "values": [{"measurement": "T/C", "setting": "[9]", "value": "90 % of control"}, {"measurement": "T/C", "setting": "endpoint: mean survival time, dose: 200.0 mg/kg/injection, schedule: Q04DX003 (ip), vehicle: saline with Tween-80", "value": "88 % of control"}, {"measurement": "T/C", "setting": "endpoint: mean survival time, dose: 400.0 mg/kg/injection, schedule: Q04DX003 (ip), vehicle: saline with Tween-80", "value": "91 % of control"}]}]}
